{"source": "patent US4564609A", "about": "“4-Substituted-2-azetidinone compound, process of producing the compounds, and medicaments containing the compounds” (Yamanouchi Pharmaceutical Co., Ltd., priority 1983, dated 1986)", "key": {"male mice [1]": {"tested_on": "male mice", "assay": "Pentobarbital-induced hypothermia (Experiment 1)", "assay_type": "in vivo", "details": "i.v. 10 min after pentobarbital 55 mg/kg i.p.; rectal temperature 30 min after test compound; dose reducing hypothermia of control group by 1.5° C.", "description": "Pentobarbital-induced hypothermia:\nNine male mice weighing 18 to 22 g were used for each dosage of the test compounds. Mice were given i.v. various doses of TRH or tested compounds 10 min. after pentobarbital (55 mg/kg i.p.). Rectal temperature was measured before pentobarbital dosing and immediately before and 30 min. after the test compounds. Effects of test compounds were evaluated as ED1.5° C., the dose required to reduce by 1.5° C. pentobarbital-hypothermia of control group of mice which received only pentobarbital and saline."}, "male mice [2]": {"tested_on": "male mice", "assay": "Disturbance of consciousness induced by concussive head injury (Experiment 2)", "assay_type": "in vivo", "details": "i.v. 10 min before concussive head injury, dose shortening spontaneous movement time of control group by 50%; for ED50: Mus musculus, iv, read-out: Onset time of spontaneous movement ED50%", "description": "Disturbance of consciousness induced by concussive head injury:\nNine male mice weighing 18 to 22 g were used for each dosage of the test compounds. An acrylate weight containing lead (20.5 g, 19 mm in both diameter and thickness) was dropped to the head of mice from a 18 cm height. Mice were induced loss of consciousness and they remained motionless for some period. The time from the shock up to the onset of spontaneous movement was recorded as the spontaneous movement time. Test compounds were administered intravenously 10 min. before adding concussive head injury and effects of test compounds were evaluated as ED50%, the dose required to shorten by 50% the spontaneous movement time of control group."}, "male mice [3]": {"tested_on": "male mice", "details": "mouse, in vivo, iv"}, "male mice [4]": {"tested_on": "male mice", "assay": "Acute toxicity (Experiment 3)", "details": "intravenous"}}, "note": "Like-named read-outs stand apart in the source and are kept apart here.", "data": [{"smiles": "NC(=O)[C@@H]1CCCN1C(=O)[C@H](Cc1c[nH]cn1)NC(=O)[C@@H]1CC(=O)N1", "note": "[Example 1, N^α -[(S)-2-azetidinone-4-carbonyl]-L-histidyl-L-prolinamide]", "values": [{"measurement": "Reversal effect against pentobarbital-hypothermia ED1.5° C.", "setting": "male mice [1]", "value": 0.01, "unit": "mg/kg"}, {"measurement": "ED50", "setting": "male mice [2]", "value": 0.1, "unit": "mg/kg"}, {"measurement": "LD50 (i.v.)", "setting": "male mice [3]", "value": "higher than 1493 mg/kg"}]}, {"smiles": "O=C1C[C@@H](C(=O)N[C@@H](Cc2c[nH]cn2)C(=O)N2CCC[C@H]2C(=O)NCCO)N1", "note": "[Example 4, N^α -[(S)-2-azetidinone-4-carbonyl]-L-histidyl-N-(2-hydroxyethyl)-L-prolinamide]", "values": [{"measurement": "ED50", "setting": "male mice [2]", "value": 0.35, "unit": "mg/kg"}]}, {"smiles": "NC(=O)[C@@H]1CSCN1C(=O)[C@H](Cc1c[nH]cn1)NC(=O)[C@@H]1CC(=O)N1", "note": "[Example 6, 3-[N^α -[(S)-2-azetidinone-4-carbonyl]-L-histidyl]-L-thiazolidine-4-carboxamide]", "values": [{"measurement": "Reversal effect against pentobarbital-hypothermia ED1.5° C.", "setting": "male mice [1]", "value": 0.05, "unit": "mg/kg"}]}, {"smiles": "Cn1cnc(CC(NC(=O)C2CC(=O)N2)C(=O)N2CCCC2C(N)=O)c1", "note": "[Example 19, N^α -[(s)-2-azetidinone-4-carbonyl]-N^.tau. -methyl-L-histidyl-L-prolinamide]", "values": [{"measurement": "Reversal effect against pentobarbital-hypothermia ED1.5° C.", "setting": "male mice [1]", "value": 0.004, "unit": "mg/kg"}]}, {"smiles": "NC(=O)[C@@H]1CCCN1C(=O)[C@H](Cc1cnc[nH]1)NC(=O)[C@@H]1CCC(=O)N1", "note": "[TRH, L-pyroglutamyl-L-histidyl-L-prolinamide, reference compound]", "values": [{"measurement": "Reversal effect against pentobarbital-hypothermia ED1.5° C.", "setting": "male mice [1]", "value": 0.1, "unit": "mg/kg"}, {"measurement": "LD50 (i.v.)", "setting": "male mice [4]", "value": 751, "unit": "mg/kg"}, {"measurement": "Onset time of spontaneous movement ED50%", "setting": "male mice [2]", "value": 2.5, "unit": "mg/kg"}]}]}
